Data: patent US11590134B2, “Aminopyrimidine amide autophagy inhibitors and methods of use thereof” (Deciphera Pharmaceuticals, LLC, priority 2019, dated 2023)

Assays:
ULK2 kinase = target: T1, ULK2 kinase (Homo sapiens, UniProt Q8IYT8); assay: Biochemical assay for ULK2 (coupled pyruvate kinase/lactate dehydrogenase assay); conditions: 9.7 nM ULK2 (residues 1-306), myelin basic protein substrate, 1 mM ATP; read-out: ULK2.2
T1 construct: purchased Eurofins 14-772
Protocol: (§1) Activity of ULK2 kinase was determined spectroscopically using a coupled pyruvate kinase/lactate dehydrogenase assay that continuously monitors the ATP hydrolysis-dependent oxidation of NADH (e.g., Schindler et al. Science (2000) 289: 1938-1942). Assays were conducted in 384-well plates (100 uL final volume) using 9.7 nM ULK2 (Eurofins CAT #14-772), 0.25 mg/mL myelin basic protein, 1.5 units pyruvate kinase, 2.1 units lactate dehydrogenase, 1 mM phosphoenol pyruvate, 0.28 mM NADH and 1 mM ATP in assay buffer (100 mM Tris, pH 7.5, 15 mM MgCl2, 0.5 mM DTT, 0.1% octyl-glucoside, 0.002% (w/v) BSA, and 0.002% Triton X-100). Inhibition of ULK2 was measured by adding serial diluted test compound (final assay concentration of 1% DMSO). A decrease in absorption at 340 nm was monitored continuously for 6 hours at 30° C. on a multi-mode microplate reader (BioTek). The reaction rate was calculated using the 2-3 h time frame. The reaction rate at each concentration of compound was converted to percent inhibition using controls (i.e. reaction with no test compound and reaction with a known inhibitor) and IC50 values were calculated by fitting a four-parameter sigmoidal curve to the data using Prism (GraphPad software).

LRRK2 kinase = target: T2, LRRK2 kinase (Homo sapiens, UniProt Q5S007); assay: Biochemical assay for LRRK2 (coupled pyruvate kinase/lactate dehydrogenase assay); conditions: 26.4 nM LRRK2 (residues 970-2528), peptide substrate, 1 mM ATP
T2 construct: (residues 970-2528; ID NO; 4); purchased Thermo Fisher
T2 sequence (Q5S007 with tags, fused parts or gaps): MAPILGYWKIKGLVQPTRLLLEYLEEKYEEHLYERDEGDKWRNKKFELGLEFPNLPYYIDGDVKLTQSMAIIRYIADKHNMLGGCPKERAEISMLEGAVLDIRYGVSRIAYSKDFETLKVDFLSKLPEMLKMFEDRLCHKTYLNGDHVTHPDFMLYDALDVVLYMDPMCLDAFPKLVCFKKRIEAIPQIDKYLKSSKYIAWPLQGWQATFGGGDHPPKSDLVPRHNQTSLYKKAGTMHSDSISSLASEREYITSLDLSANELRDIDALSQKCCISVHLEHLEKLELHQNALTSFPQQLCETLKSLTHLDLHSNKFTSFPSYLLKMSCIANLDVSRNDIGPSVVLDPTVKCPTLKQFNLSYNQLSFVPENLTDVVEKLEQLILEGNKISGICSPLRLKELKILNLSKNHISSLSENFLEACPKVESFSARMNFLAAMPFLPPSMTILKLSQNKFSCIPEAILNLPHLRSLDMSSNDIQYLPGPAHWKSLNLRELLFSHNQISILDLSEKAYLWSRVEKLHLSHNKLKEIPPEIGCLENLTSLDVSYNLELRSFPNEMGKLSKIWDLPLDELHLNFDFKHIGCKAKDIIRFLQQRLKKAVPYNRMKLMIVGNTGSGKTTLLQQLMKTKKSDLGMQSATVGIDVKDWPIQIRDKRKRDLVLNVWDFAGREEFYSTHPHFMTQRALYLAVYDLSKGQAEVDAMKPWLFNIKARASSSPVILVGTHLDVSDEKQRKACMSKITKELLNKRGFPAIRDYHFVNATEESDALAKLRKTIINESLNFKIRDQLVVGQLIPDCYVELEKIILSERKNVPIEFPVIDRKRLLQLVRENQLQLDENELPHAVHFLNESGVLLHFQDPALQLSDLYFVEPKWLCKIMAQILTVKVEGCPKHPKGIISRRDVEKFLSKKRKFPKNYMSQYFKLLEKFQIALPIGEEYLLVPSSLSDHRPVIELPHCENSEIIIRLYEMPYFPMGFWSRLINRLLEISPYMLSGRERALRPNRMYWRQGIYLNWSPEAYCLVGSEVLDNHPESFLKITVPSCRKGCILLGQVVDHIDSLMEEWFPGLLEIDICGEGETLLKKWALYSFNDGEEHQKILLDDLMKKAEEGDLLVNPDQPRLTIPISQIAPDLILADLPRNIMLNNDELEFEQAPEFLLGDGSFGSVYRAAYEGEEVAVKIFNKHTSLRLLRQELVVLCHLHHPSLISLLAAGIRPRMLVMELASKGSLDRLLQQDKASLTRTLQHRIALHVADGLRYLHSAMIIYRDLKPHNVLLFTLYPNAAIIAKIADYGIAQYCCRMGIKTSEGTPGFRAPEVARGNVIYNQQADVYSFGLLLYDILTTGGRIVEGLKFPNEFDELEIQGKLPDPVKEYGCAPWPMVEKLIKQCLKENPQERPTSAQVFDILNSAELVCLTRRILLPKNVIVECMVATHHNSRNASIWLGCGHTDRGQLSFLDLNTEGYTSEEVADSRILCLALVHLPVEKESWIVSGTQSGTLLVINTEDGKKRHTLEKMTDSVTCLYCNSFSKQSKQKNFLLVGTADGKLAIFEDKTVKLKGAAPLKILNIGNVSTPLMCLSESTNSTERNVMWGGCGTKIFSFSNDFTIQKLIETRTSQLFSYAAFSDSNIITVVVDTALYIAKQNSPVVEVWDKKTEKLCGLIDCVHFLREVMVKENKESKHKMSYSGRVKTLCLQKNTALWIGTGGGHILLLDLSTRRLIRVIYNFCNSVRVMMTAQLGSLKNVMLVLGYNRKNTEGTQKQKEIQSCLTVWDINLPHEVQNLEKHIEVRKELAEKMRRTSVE
Protocol: (§2) Activity of LRRK2 kinase was determined spectroscopically using a coupled pyruvate kinase/lactate dehydrogenase assay that continuously monitors the ATP hydrolysis-dependent oxidation of NADH (e.g., Schindler et al. Science (2000) 289: 1938-1942). Assays were conducted in 384-well plates (100 uL final volume) using 26.4 nM LRRK2 (Thermo Fisher), 0.1 mM peptide substrate (RLGRDKYKTLRQIRQ (SEQ ID NO: 6)), 1.5 units pyruvate kinase, 2.1 units lactate dehydrogenase, 1 mM phosphoenol pyruvate, 0.28 mM NADH and 1 mM ATP in assay buffer (100 mM Tris, pH 7.5, 15 mM MgCl2, 0.5 mM DTT, 0.004% (w/v) BSA, and 0.004% Triton X-100). Inhibition of LRRK2 was measured by adding serial diluted test compound (final assay concentration of 1% DMSO). A decrease in absorption at 340 nm was monitored continuously for 6 hours at 30° C. on a multi-mode microplate reader (BioTek). The reaction rate was calculated using the 2-3 h time frame. The reaction rate at each concentration of compound was converted to percent inhibition using controls (i.e. reaction with no test compound and reaction with a known inhibitor) and IC50 values were calculated using software routines in Prism (GraphPad software).

ULK1 kinase [1] = target: T3, ULK1 kinase (Homo sapiens, UniProt O75385, E37A/K38A); assay: Biochemical assay for ULK1.3 (coupled pyruvate kinase/lactate dehydrogenase assay); conditions: 0.1 nM ULK1 (residues 1-283), peptide substrate, 1 mM ATP
T3 construct: (residues 1-283; ID NO: 2); purchased Beryllium
T3 sequence (O75385 1-283 E37A/K38A): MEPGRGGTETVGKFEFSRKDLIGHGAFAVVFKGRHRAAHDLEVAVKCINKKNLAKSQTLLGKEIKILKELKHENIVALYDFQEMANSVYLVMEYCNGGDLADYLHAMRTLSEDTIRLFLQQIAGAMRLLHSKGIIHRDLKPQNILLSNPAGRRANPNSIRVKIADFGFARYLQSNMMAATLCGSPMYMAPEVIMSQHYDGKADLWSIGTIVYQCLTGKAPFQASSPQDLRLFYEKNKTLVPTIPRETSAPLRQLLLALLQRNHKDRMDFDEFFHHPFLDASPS
Protocol: as §2, with “ULK1” for “LRRK2”, “0.1” for “26.4”, “ULK1 (from Beryllium), 0.075” for “LRRK2 (Thermo Fisher), 0.1”, “(YANWLAASIYLDGKKK” for “(RLGRDKYKTLRQIRQ”, “5)),” for “6)),”

[2] = system: ULK kinase substrate ATG13 (phospho-Serine 318 ATG13) in A549 cells; assay: pATG13 ELISA in mutant KRas A549 cells in combination with trametinib; type: cell-based; conditions: A549 (KRAS mutant) human lung cancer cells, with 250 nM trametinib, overnight
Protocol: (§3) A549 (KRAS mutant) human lung cancer cells (6,000 cells/well) were added to a 384-well tissue-culture treated plate in 50 μL of pre-warmed DMEM medium supplemented with 10% characterized fetal bovine serum (Invitrogen, Carlsbad, Calif.), 100 units/mL penicillin G, and 100 μg/mL streptomycin and allowed to grow overnight at 37° C., 5% CO2, and 95% humidity. The following day, 10 μL of media containing trametinib or DMSO as a control was added to wells. The final concentration of trametinib in wells was 250 nM. A dose response of a test compound (0.6 μL per well) was added. DMSO (0.6 μL) was added to control wells. The plate was briefly shaken to mix wells and then incubated at 37° C. overnight. The next day, the media was aspirated and cells were washed with Dulbecco's Phosphate Buffered Saline (Gibco). Cells were lysed using MPER lysis buffer (Pierce, Rockford, Ill.) containing Halt Phosphatase and Protease Inhibitors (Pierce, Rockford, Ill.) and Phosphatase inhibitor cocktail 2 (Sigma, St. Louis, Mo.) at 4° C. for 10 minutes with shaking.
(§4) Cellular levels of phospho-Serine 318 ATG13 (pATG13) were measured via an ELISA method. Total ATG13 Antibody (Cell Signaling Cat #13273) was used to coat the wells. The plate was incubated at 4° C. overnight and washed with ELISA wash buffer (Biolegend Cat #421601). The wells were then blocked with assay diluent (Biolegend Cat #421203) for 1 hour at room temperature. Plate wells were washed with ELISA wash buffer. Cell lysate was added to wells and incubated at room temperature for 2 hours. Plate wells were washed with ELISA wash buffer. Biotinylated pS318-ATG13 antibody (Rockland Immunochemicals Cat #600-401-C49) was diluted in assay diluent and added to each well and incubated at room temperature for 1 hour. Plate wells were washed with ELISA wash buffer. Streptavidin linked to horseradish peroxidase (Thermo Fisher Cat #21140) was diluted in assay diluent and added to each well and incubated at room temperature for 1 hour. Plate wells were washed with ELISA wash buffer. High sensitivity TMB substrate (Biolegend Cat #421101) was added to each well and incubated at room temperature for 20 minutes. The reaction was stopped with 2N Sulfuric Acid. The plate was analyzed at on a plate reader measuring absorbance at 450 nm and 540 nm (background). Signal was calculated by first subtracting the background absorbance at 540 nm from the absorbance at 450 nm for each well. Next, the background corrected absorbance at 450 nm from blank wells was subtracted from test wells. Data was compared to control wells to determine % ATG13 phosphorylation. GraphPad Prism was used to calculate IC50 values.

ULK1 kinase [3] = target: T4, ULK1 kinase (Homo sapiens, UniProt O75385); assay: Biochemical assay for ULK1.2 (coupled pyruvate kinase/lactate dehydrogenase assay); conditions: 19 nM ULK1 (residues 1-314), myelin basic protein substrate, 1 mM ATP
T4 construct: purchased Eurofins 14-959
T4 sequence (O75385 with tags, fused parts or gaps): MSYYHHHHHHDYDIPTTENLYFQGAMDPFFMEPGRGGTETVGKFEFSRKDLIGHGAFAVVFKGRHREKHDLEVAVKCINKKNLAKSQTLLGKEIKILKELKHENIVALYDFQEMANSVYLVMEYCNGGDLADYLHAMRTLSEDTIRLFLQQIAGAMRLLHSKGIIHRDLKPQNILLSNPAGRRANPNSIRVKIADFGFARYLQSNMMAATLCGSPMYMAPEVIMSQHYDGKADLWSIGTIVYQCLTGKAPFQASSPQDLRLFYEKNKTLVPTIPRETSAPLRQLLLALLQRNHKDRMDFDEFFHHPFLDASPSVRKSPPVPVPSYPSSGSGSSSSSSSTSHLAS
Protocol: as §1, with “ULK1” for “ULK2”, “19” for “9.7”, “#14-959),” for “#14-772),”

[4] = system: ULK kinase substrate ATG13 (phospho-Serine 318 ATG13) in MiaPaCa-2 cells; assay: pATG13 ELISA in mutant KRas MiaPaCa-2 cells in combination with trametinib; type: cell-based; conditions: MiaPaCa-2 human pancreatic cancer cells, with 250 nM trametinib, overnight
Protocol: as §3, with “MiaPaCa-2” for “A549 (KRAS mutant)”, “pancreatic” for “lung”, “(10000” for “(6,000”, “G,” for “G, and”, “streptomycin, and 2.5% Horse Serum” for “streptomycin”
as §4

T1 sequence (Q8IYT8 with tags, fused parts or gaps): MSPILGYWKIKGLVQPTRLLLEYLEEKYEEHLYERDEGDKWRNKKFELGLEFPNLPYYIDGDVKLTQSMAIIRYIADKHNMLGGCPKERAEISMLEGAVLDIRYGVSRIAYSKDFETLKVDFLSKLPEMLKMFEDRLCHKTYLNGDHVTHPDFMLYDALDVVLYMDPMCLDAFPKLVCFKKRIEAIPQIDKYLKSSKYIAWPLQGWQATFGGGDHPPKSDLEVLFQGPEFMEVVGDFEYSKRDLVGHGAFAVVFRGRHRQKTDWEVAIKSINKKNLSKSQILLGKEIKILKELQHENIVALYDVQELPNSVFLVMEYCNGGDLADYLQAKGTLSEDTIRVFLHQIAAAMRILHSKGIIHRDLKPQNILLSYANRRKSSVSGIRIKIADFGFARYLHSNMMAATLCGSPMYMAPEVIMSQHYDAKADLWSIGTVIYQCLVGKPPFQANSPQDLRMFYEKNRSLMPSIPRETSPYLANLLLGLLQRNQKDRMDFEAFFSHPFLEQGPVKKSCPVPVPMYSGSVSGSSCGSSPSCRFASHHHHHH

Compound	IC50 (ULK2 kinase)	IC50 (LRRK2 kinase)	IC50 (ULK1 kinase [1])	IC50 [2]	IC50 (ULK1 kinase [3])	IC50 [4]
CCc1cc(N2CCN(C)CC2)ccc1Nc1ncc(Br)c(NCCCNC(=O)C2CCC2)n1 [Example 7]	100 to 500 nM	100 to 300 nM	25 to 100 nM			
CCc1cc(N2CCN(C)CC2)ccc1Nc1ncc(C(F)(F)F)c(NCCCNC(=O)C2CCC2)n1 [Example 1, N-(3-((2-((2-ethyl-4-(4-methylpiperazin-1-yl)phenyl)amino)-5-(trifluoromethyl)pyrimidin-4-yl)amino)propyl)cyclobutanecarboxamide]	25 to 100 nM			100 to 300 nM	1 to 25 nM	10 to 100 nM
CC(C)Oc1cc(N2CCN(C)CC2)ccc1Nc1ncc(Cl)c(NCCCNC(=O)C2CCC2)n1 [Example 10]	500 to 20000 nM	100 to 300 nM	500 to 20000 nM			
CN1CCN(c2ccc(Nc3ncc(Br)c(NCCCNC(=O)C4CCC4)n3)c(C3CC3)c2)CC1 [Example 9]	100 to 500 nM	100 to 300 nM	25 to 100 nM			

Results, then the molecule that gave them:

IC50 (ULK2 kinase)	IC50 (LRRK2 kinase)	IC50 (ULK1 kinase [1])	IC50 [2]	IC50 (ULK1 kinase [3])	IC50 [4]	Compound
500 to 20000 nM	600 to 20000 nM	500 to 20000 nM				CCc1cc(N2CCN(C)CC2)ccc1Nc1ncc(C2CC2)c(NCCCNC(=O)C2CCC2)n1 [Example 19]
500 to 20000 nM	1 to 100 nM	500 to 20000 nM				Cc1nn(C(C)(C)C(N)=O)cc1Nc1ncc(C(F)(F)F)c(NCCCNC(=O)C2CCC2)n1 [Example 26, N-(3-((2-((1-(1-amino-2-methyl-1-oxopropan-2-yl)-3-methyl-1H-pyrazol-4-yl)amino)-5-(trifluoromethyl)pyrimidin-4-yl)amino)propyl)cyclobutanecarboxamide]
500 to 20000 nM	1 to 100 nM	100 to 500 nM				Cc1nn(C(C)(C)C#N)cc1Nc1ncc(C(F)(F)F)c(NCCCNC(=O)C2CCC2)n1 [Example 30, N-(3-((2-((1-(2-cyanopropan-2-yl)-3-methyl-1H-pyrazol-4-yl)amino)-5-(trifluoromethyl)pyrimidin-4-yl)amino)propyl)cyclobutanecarboxamide]
